This is an account of results in patent US6930075B1, “Fatty acid-based herbicidal composition” (priority 1990, dated 2005).

Experiment in all cases: Greenhouse post-emergence spray, plant damage rating
Assay type in all cases: in vivo

Test [1] concerns Sinapis arvensis (wild mustard). The note with it: S. arvensis, alone and combined. The protocol: (§1) Three species of weed, used in each test: Hypochoeris radicata (false dandelion), Sinapis, arvensis (wild mustard), and Avena sativa (oats), were grown in a greenhouse facility in 5.5 cm square pots using a potting soil mix comprising peat, vermiculite, sand, and 4-10-10 fertilizer. Water-soluble 20-20-20 fertilizer was used as a supplement for the plants as required. The plants were selected for use based on uniformity and quality and were potted separately. One plant per pot each of H. radicata (6–10 leaves) and S. arvensis (4–6 leaves) were used. Six to eight plants of A. sativa (2–4 leaves) were used per pot. After spraying with a herbicidal composition (as described below) the pots were arranged in a randomized complete block design in sub-irrigated watering trays. Six to ten replicates (pots) were used per treatment.
(§2) Herbicidal treatments were applied using a spray chamber fitted with a TeeJet 8006E flat fan nozzle (available from Spraying Systems Co., Wheaton, Ill.), calibrated to spray at a volume of 60 gpa at 40 psi. Treatment solutions were freshly prepared for each experiment. Plant damage was assessed at 10 to 14 days after treatment using a pre-transformed 0–10 rating scale (0 representing no damage, 10 representing plant death) in accordance with the procedure outlined in Statistical Methods in Agricultural Research, Little, T. M. et al, J. Wiley and Sons, 1975, pp. 119–120, 218.

Test [2] relates to Hypochoeris radicata (false dandelion). The note with it: H. radicata, alone and combined. How it is done:
as §1, §2

The test system of the next test is Avena sativa (oats). Conditions: A. sativa, alone and combined. The protocol:
as §1, §2

Setting [3] is: Table 2 set 1: Round-Up 0.1%, Sodium pelargonate 0.1%.
The mark [4] stands for this setting: Table 2 set 2: Round-Up 0.1%, Sodium pelargonate 0.1% (so in the source).
The mark [5] stands for this setting: Table 2 set 3: Round-Up 0.1%, Sodium pelargonate 0.1% (so in the source).

As for `CCCCCCCCC(=O)[O-].[Na+]` [Sodium pelargonate], the “Phytotoxicity (%) Observed” value in test [1] (setting [3]), in test [1] (setting [4]), in test [1] (setting [5]), in test [2] (setting [3]), in test [2] (setting [4]) and in test [2] (setting [5]) was 0% each time. Besides, the results for the “Phytotoxicity (%) Observed” value in the test with Avena sativa (oats) (setting [3]), with Avena sativa (oats) (setting [4]) and in the test on Avena sativa (oats) (setting [5]) were 0%, 0% and 1%, respectively.
